Where two headings read alike, the source gives them in different places.
Columns and labels:
Assay type in all cases: cell-based
[1] = system: NCI-H522; test: NCI60 five-dose screen, Non-small Cell Lung Cancer; conditions: Homo sapiens; NCI-H522, Non-small Cell Lung Cancer; five-dose screen; read-out: GI50
[2] = system: SK-OV-3; test: NCI60 five-dose screen, Ovarian Cancer; conditions: Homo sapiens; SK-OV-3, Ovarian Cancer; five-dose screen; read-out: GI50
[3] = system: MCF7; test: NCI60 five-dose screen, Breast Cancer; conditions: Homo sapiens; MCF7, Breast Cancer; five-dose screen; read-out: GI50
[4] = system: NCI-H322M; test: NCI60 five-dose screen, Non-small Cell Lung Cancer; conditions: Homo sapiens, Non-small Cell Lung Cancer, five-dose screen, read-out: GI50
[5] = system: SNB-75; test: NCI60 five-dose screen, CNS Cancer; conditions: Homo sapiens; SNB-75, CNS Cancer; five-dose screen; read-out: GI50
[6] = system: OVCAR-3; test: NCI60 five-dose screen, Ovarian Cancer; conditions: Homo sapiens; OVCAR-3, Ovarian Cancer; five-dose screen; read-out: GI50
[7] = system: A549/ATCC; test: NCI60 five-dose screen, Non-small Cell Lung Cancer; conditions: Homo sapiens; A549/ATCC, Non-small Cell Lung Cancer; five-dose screen; read-out: GI50
[8] = system: SF-295; test: NCI60 five-dose screen, CNS Cancer; conditions: Homo sapiens; SF-295, CNS Cancer; five-dose screen; read-out: GI50
[9] = system: 786–0; test: NCI60 five-dose screen, Renal Cancer; conditions: Homo sapiens; 786–0, Renal Cancer; five-dose screen; read-out: GI50
[10] = system: A498; test: NCI60 five-dose screen, Renal Cancer; conditions: Homo sapiens; A498, Renal Cancer; five-dose screen; read-out: GI50
[11] = system: UACC-257; test: NCI60 five-dose screen, Melanoma; conditions: Homo sapiens; UACC-257, Melanoma; five-dose screen; read-out: GI50
[12] = system: KM12; test: NCI60 five-dose screen, Colon Cancer; conditions: Homo sapiens; KM12, Colon Cancer; five-dose screen; read-out: GI50
[13] = system: HCT-15; test: NCI60 five-dose screen, Colon Cancer; conditions: Homo sapiens; HCT-15, Colon Cancer; five-dose screen; read-out: GI50
[14] = system: M14; test: NCI60 five-dose screen, Melanoma; conditions: Homo sapiens; M14, Melanoma; five-dose screen; read-out: GI50
[15] = system: MDA-MB-468; test: NCI60 five-dose screen, Breast Cancer; conditions: Homo sapiens; MDA-MB-468, Breast Cancer; five-dose screen; read-out: GI50
[16] = system: OVCAR-8; test: NCI60 five-dose screen, Ovarian Cancer; conditions: Homo sapiens; OVCAR-8, Ovarian Cancer; five-dose screen; read-out: GI50
[17] = system: UO-31; test: NCI60 five-dose screen, Renal Cancer; conditions: Homo sapiens; UO-31, Renal Cancer; five-dose screen; read-out: GI50
[18] = system: RPMI-8226; test: NCI60 five-dose screen, Leukemia; conditions: Homo sapiens; RPMI-8226, Leukemia; five-dose screen; read-out: GI50
[19] = system: NCI-H23; test: NCI60 five-dose screen, Non-small Cell Lung Cancer; conditions: Homo sapiens; NCI-H23, Non-small Cell Lung Cancer; five-dose screen; read-out: GI50
[20] = system: RXF 393; test: NCI60 five-dose screen, Renal Cancer; conditions: Homo sapiens, RXF 393, Renal Cancer
[21] = system: SN12C; test: NCI60 five-dose screen, Renal Cancer; conditions: Homo sapiens, Renal Cancer, five-dose screen, read-out: GI50
[22] = system: BT-549; test: NCI60 five-dose screen, Breast Cancer; conditions: Homo sapiens; BT-549, Breast Cancer; five-dose screen; read-out: GI50
[23] = system: MOLT-4; test: NCI60 five-dose screen, Leukemia; conditions: Homo sapiens; MOLT-4, Leukemia; five-dose screen; read-out: GI50
[24] = system: SR; test: NCI60 five-dose screen, Leukemia; conditions: Homo sapiens, Leukemia, five-dose screen, read-out: GI50
[25] = system: COLO 205; test: NCI60 five-dose screen, Colon Cancer; conditions: Homo sapiens; COLO 205, Colon Cancer; five-dose screen; read-out: GI50
[26] = system: CCRF-CEM; test: NCI60 five-dose screen, Leukemia; conditions: Homo sapiens, Leukemia, five-dose screen, read-out: GI50
[27] = system: SK-MEL-28; test: NCI60 five-dose screen, Melanoma; conditions: Homo sapiens; SK-MEL-28, Melanoma; five-dose screen; read-out: GI50
[28] = system: 60 human tumor cell lines (NCI60); test: NCI60 five-dose screen, whole panel and sub-panel means; conditions: read-out: GI50 Mean
[29] = system: PC-3; test: NCI60 five-dose screen, Prostate Cancer; conditions: Homo sapiens; PC-3, Prostate Cancer; five-dose screen; read-out: GI50
[30] = system: SK-MEL-2; test: NCI60 five-dose screen, Melanoma; conditions: Homo sapiens; SK-MEL-2, Melanoma; five-dose screen; read-out: GI50
[31] = system: MALME-3M; test: NCI60 five-dose screen, Melanoma; conditions: Homo sapiens; MALME-3M, Melanoma; five-dose screen; read-out: GI50
[32] = system: HCC-2998; test: NCI60 five-dose screen, Colon Cancer; conditions: Homo sapiens; HCC-2998, Colon Cancer; five-dose screen; read-out: GI50
[33] = system: SW-620; test: NCI60 five-dose screen, Colon Cancer; conditions: Homo sapiens; SW-620, Colon Cancer; five-dose screen; read-out: GI50
[34] = system: U251; test: NCI60 five-dose screen, CNS Cancer; conditions: Homo sapiens, U-251; U251, CNS Cancer; five-dose screen; read-out: GI50
[35] = system: NCI-H226; test: NCI60 five-dose screen, Non-small Cell Lung Cancer; conditions: Homo sapiens; NCI-H226, Non-small Cell Lung Cancer; five-dose screen; read-out: GI50
[36] = Homo sapiens, 60 cell, mean over all 60 cell lines
[37] = Homo sapiens, mean over Breast Cancer panel
[38] = Homo sapiens, mean over CNS Cancer panel
[39] = Homo sapiens, mean over Colon Cancer panel
[40] = Homo sapiens, mean over Leukemia panel
[41] = Homo sapiens, mean over Melanoma panel
[42] = Homo sapiens, mean over Non-small Cell Lung Cancer panel
[43] = Homo sapiens, mean over Ovarian Cancer panel
[44] = Homo sapiens, mean over Prostate Cancer panel
[45] = Homo sapiens, mean over Renal Cancer panel

CC[C@]12C=CCN3CC[C@@]4(c5ccc(OC)cc5N(C)[C@H]4[C@@](O)(C(=O)OC)[C@@H]1OC(=O)CCC(=O)N1CCN(c4ccc(C(F)(F)F)cc4)CC1)[C@@H]32 [Compound 28]
GI50 [1]: 3.24 µM
GI50 [2]: 3.89 µM
GI50 [3]: 2.95 µM
GI50 [4]: 10 µM
GI50 [5]: 2 µM
GI50 [6]: 3.72 µM
GI50 [7]: 2.75 µM
GI50 [8]: 3.16 µM
GI50 [9]: 5.01 µM
GI50 [10]: 5.75 µM
GI50 [11]: 3.89 µM
GI50 [12]: 4.79 µM
GI50 [13]: 3.16 µM
GI50 [14]: 2.4 µM
GI50 [15]: 1860 nM
GI50 [16]: 3.72 µM
GI50 [17]: 2.29 µM
GI50 [18]: 2.57 µM
GI50 [19]: 4.37 µM
GI50 [20]: 2.29 µM
GI50 [21]: 4.17 µM
GI50 [22]: 3.31 µM
GI50 [23]: 1.17 µM
GI50 [24]: 2.29 µM
GI50 [25]: 1.91 µM
GI50 [26]: 1.66 µM
GI50 [27]: 5.01 µM
GI50 [28, 36]: < 4 µM
GI50 [28, 37]: 3.44 µM
GI50 [28, 38]: 3.69 µM
GI50 [28, 39]: 3.16 µM
GI50 [28, 40]: 1.81 µM
GI50 [28, 41]: 3.63 µM
GI50 [28, 42]: 4.23 µM
GI50 [28, 43]: 3.92 µM
GI50 [28, 44]: 3.85 µM
GI50 [28, 45]: 3.67 µM
GI50 ([28]; mean over all 60 cell lines): 3.55 µM
GI50 [29]: 2450 nM
GI50 [30]: 2750 nM
GI50 [31]: 5.37 µM
GI50 [32]: 2.4 µM
GI50 [33]: 3.98 µM
GI50 [34]: 3.31 µM
GI50 [35]: 3.16 µM

CC[C@]12C=CCN3CC[C@@]4(c5ccc(OC)cc5N(C)[C@H]4[C@@](O)(C(=O)OC)[C@@H]1OC(=O)CCC(=O)N1CCN(Cc4ccc(C(F)(F)F)cc4)CC1)[C@@H]32 [Compound 29]
GI50 [1]: 12.6 µM
GI50 [2]: 12.6 µM
GI50 [3]: 5.62 µM
GI50 [4]: 14.5 µM
GI50 [5]: 15.5 µM
GI50 [6]: 6.46 µM
GI50 [7]: 8.32 µM
GI50 [8]: 9.33 µM
GI50 [9]: 12.3 µM
GI50 [10]: 12.3 µM
GI50 [11]: 11.5 µM
GI50 [12]: 11.8 µM
GI50 [13]: 10.2 µM
GI50 [14]: 8.13 µM
GI50 [15]: 1950 nM
GI50 [16]: 12 µM
GI50 [17]: 6.92 µM
GI50 [18]: 6.92 µM
GI50 [19]: 12 µM
GI50 [20]: 4.47 µM
GI50 [21]: 11.5 µM
GI50 [22]: 15.1 µM
GI50 [23]: 5.25 µM
GI50 [24]: 13.8 µM
GI50 [25]: 7.08 µM
GI50 [26]: 11.8 µM
GI50 [27]: 11.8 µM
GI50 [28, 36]: 9.76 µM
GI50 [28, 37]: 8.72 µM
GI50 [28, 38]: 11.1 µM
GI50 [28, 39]: 9.71 µM
GI50 [28, 40]: 9.07 µM
GI50 [28, 41]: 9.42 µM
GI50 [28, 42]: 10.4 µM
GI50 [28, 43]: 10.6 µM
GI50 [28, 44]: 7.3 µM
GI50 [28, 45]: 9.9 µM
GI50 [29]: 3390 nM
GI50 [30]: 2820 nM
GI50 [31]: 11.5 µM
GI50 [32]: 12.9 µM
GI50 [33]: 11.5 µM
GI50 [34]: 11.2 µM
GI50 [35]: 9.77 µM
